Assay [1] has as its target T1, PCSK9 (Homo sapiens, UniProt Q8NBP7). Kind of assay: Differential scanning calorimetry (DSC) assay, direct binding / thermal stabilization of PCSK9. To be noted: Tm(with compound)−Tm(no compound); 2 μM PCSK9, 300 μM test compound. An outline of the steps:
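Thermal stabilization of 2 μM PCSK9 with or without 300 μM compound in 25 mM HEPES pH 7.5, 150 mM NaCl, 1 mM CaCl2, 3.75% DMSO. Sample heated 20–80 °C at 200 °C/hr against buffer reference. Protein Tm derived from each thermogram.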

Assay [2] addresses T1, PCSK9. Kind of assay: Fluorescence polarization competition binding assay (probe: compound of Example 57). To be noted: 2 μM PCSK9, 50 nM compound of Example 57 as probe, overnight incubation; read-out: FP IC. In outline: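 Competition fluorescence-polarization binding: 2 μM PCSK9 with 50 nM fluorescent probe in 20 mM HEPES pH 7.5, 150 mM NaCl, 1 mM CaCl2, 0.005% P-20, incubated with test compound overnight in the dark. Anisotropy read; % inhibition relative to DMSO wells and probe-without-PCSK9 wells.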

The structures appear in SMILES notation.

T1 sequence (Q8NBP7 153-692): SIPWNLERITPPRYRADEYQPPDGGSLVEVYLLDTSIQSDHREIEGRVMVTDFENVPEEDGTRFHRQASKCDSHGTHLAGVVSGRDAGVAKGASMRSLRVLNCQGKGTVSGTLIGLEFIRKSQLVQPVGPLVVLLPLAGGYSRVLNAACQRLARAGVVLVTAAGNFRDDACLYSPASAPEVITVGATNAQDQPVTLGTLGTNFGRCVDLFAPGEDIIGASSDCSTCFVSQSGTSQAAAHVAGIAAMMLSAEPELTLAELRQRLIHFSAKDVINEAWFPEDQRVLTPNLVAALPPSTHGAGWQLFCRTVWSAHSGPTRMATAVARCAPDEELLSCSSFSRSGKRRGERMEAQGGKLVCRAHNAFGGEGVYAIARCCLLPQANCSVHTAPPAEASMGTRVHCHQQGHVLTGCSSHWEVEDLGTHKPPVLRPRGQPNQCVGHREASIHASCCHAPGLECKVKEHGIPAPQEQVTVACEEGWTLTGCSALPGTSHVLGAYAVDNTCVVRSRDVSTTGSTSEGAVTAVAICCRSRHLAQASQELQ

As to `COc1cc2c(cc1Oc1ccc(-c3c[nH]c(C(=O)O)c3)c(F)c1)[C@@](C)(CC(=O)Nc1nccs1)NCC2` [Example 14, (R)-4-(2-fluoro-4-((6-methoxy-1-methyl-1-(2-oxo-2-(thiazol-2-ylamino)ethyl)-1,2,3,4-tetrahydroisoquinolin-7-yl)oxy)phenyl)-1H-pyrrole-2-carboxylic acid], the ΔTm at 300 µM at PCSK9 [1] came to 5.89 °C. For the same compound, at PCSK9 [2], the IC50 came to 0.000237 µM.
The matching figures for `C[C@]1(CC(=O)Nc2nccs2)NCCc2cc(OCCn3cc(CCCCCCCCC(=O)O)nn3)c(Oc3ccc(C(=O)O)c(F)c3)cc21` [Example 44, (R)-4-((6-(2-(4-(8-carboxyoctyl)-1H-1,2,3-triazol-1-yl)ethoxy)-1-methyl-1-(2-oxo-2-(thiazol-2-ylamino)ethyl)-1,2,3,4-tetrahydroisoquinolin-7-yl)oxy)-2-fluorobenzoic acid]: 6.89 °C and 0.426 µM.
With `C[C@]1(CC(=O)Nc2nccs2)NCCc2cc(OCC3CCCCO3)c(Oc3ccc(C(=O)Nc4n[nH]c5ncccc45)c(F)c3)cc21` (stereo partly drawn) [Example 74, 2-fluoro-4-(((1R)-1-methyl-1-(2-oxo-2-(thiazol-2-ylamino)ethyl)-6-((tetrahydro-2H-pyran-2-yl)methoxy)-1,2,3,4-tetrahydroisoquinolin-7-yl)oxy)-N-(1H-pyrazolo[3,4-b]pyridin-3-yl)benzamide], the ΔTm at 300 µM on PCSK9 [1] was determined as 7.08 °C. For the same compound, the IC50 at PCSK9 [2] came to 0.79 µM.
In the case of `C[C@]1(CC(=O)Nc2nccs2)NCCc2cc(OCc3ccccn3)c(Oc3ccc(-c4ccc(C(=O)O)cc4)c(F)c3)cc21` [Example 18, (R)-2′-fluoro-4′-((1-methyl-1-(2-oxo-2-(thiazol-2-ylamino)ethyl)-6-(pyridin-2-ylmethoxy)-1,2,3,4-tetrahydroisoquinolin-7-yl)oxy)-[1,1′-biphenyl]-4-carboxylic acid], the ΔTm at 300 µM at PCSK9 [1] worked out at 7.62 °C. The IC50 on PCSK9 [2] worked out at 0.0943 µM.
Take `COc1cc2c(cc1Oc1ccc(-c3ccc(/C=C/C(=O)O)cc3)c(F)c1)[C@@](C)(CC(=O)Nc1nccs1)NCC2` [Example 28, (RE)-3-(2′-fluoro-4′-((6-methoxy-1-methyl-1-(2-oxo-2-(thiazol-2-ylamino)ethyl)-1,2,3,4-tetrahydroisoquinolin-7-yl)oxy)-[1,1′-biphenyl]-4-yl)acrylic acid]: the ΔTm at 300 µM on PCSK9 [1] stood at 6.91 °C. The IC50 at PCSK9 [2] came out at 0.407 µM.
Consider `COc1cc2c3cc1Oc1ccc(C(=O)O)c(c1)OCCCCCCc1csc(n1)NC(=O)C[C@@]3(C)NCC2` [Example 1, (Z)-36-methoxy-31-methyl-5-oxo-31,32,33,34-tetrahydro-2,14-dioxa-6-aza-7(2,4)-thiazola-3(7,1)-isoquinolina-1(1,3)-benzenacyclotetradecaphane-14-carboxylic acid], for which, at PCSK9 [1], the ΔTm at 300 µM stood at 4.29 °C. For the same compound, the IC50 at PCSK9 [2] came to 3.67 µM.
The corresponding values for `C[C@]1(CC(=O)Nc2nccs2)NCCc2cc(OCCn3cc(C(N)CO)nn3)c(Oc3ccc(C(=O)O)c(F)c3)cc21` (stereo partly drawn) [Example 37, 4-(((1R)-6-(2-(4-(1-amino-2-hydroxyethyl)-1H-1,2,3-triazol-1-yl)ethoxy)-1-methyl-1-(2-oxo-2-(thiazol-2-ylamino)ethyl)-1,2,3,4-tetrahydroisoquinolin-7-yl)oxy)-2-fluorobenzoic acid] are 5.63 °C and 0.615 µM.
The matching figures for `COCCOc1cc2c(cc1Oc1ccc(C(=O)O)cc1)[C@@](C)(CC(=O)Nc1nccs1)NCC2` [Example 69, (R)-4-((6-(2-methoxyethoxy)-1-methyl-1-(2-oxo-2-(thiazol-2-ylamino)ethyl)-1,2,3,4-tetrahydroisoquinolin-7-yl)oxy)benzoic acid]: 7.65 °C and 0.541 µM.
With `COc1cccc(NC(=O)C[C@@]2(C)NCCc3cc(OCC4CCCCO4)c(Oc4ccc(Br)c(F)c4)cc32)c1` (stereo partly drawn) [Example 86, 2-((1R)-7-(4-bromo-3-fluorophenoxy)-1-methyl-6-((tetrahydro-2H-pyran-2-yl)methoxy)-1,2,3,4-tetrahydroisoquinolin-1-yl)-N-(3-methoxyphenyl)acetamide], the shift in melting temperature (ΔTm) at 300 µM on PCSK9 [1] is 6.18 °C. Moreover, the IC50 on PCSK9 [2] came to 0.00117 µM.
Turning to `COc1cc2c(cc1Oc1cccc(F)c1)[C@@](C)(CC(=O)Nc1nccs1)NCC2` [Example 9, (R)-2-(7-(3-fluorophenoxy)-6-methoxy-1-methyl-1,2,3,4-tetrahydroisoquinolin-1-yl)-N-(thiazol-2-yl)acetamide], on PCSK9 [1], the ΔTm at 300 µM was determined as 5.92 °C. Also, at PCSK9 [2], the IC50 was determined as 0.847 µM.
The corresponding values for `C[C@]1(CC(=O)Nc2nccs2)NCCc2cc(OCc3ncccn3)c(Oc3ccc(-c4ccc(C(=O)O)cc4)c(F)c3)cc21` [Example 19, (R)-2′-fluoro-4′-((1-methyl-1-(2-oxo-2-(thiazol-2-ylamino)ethyl)-6-(pyrimidin-2-ylmethoxy)-1,2,3,4-tetrahydroisoquinolin-7-yl)oxy)-[1,1′-biphenyl]-4-carboxylic acid] are 9.05 °C and 0.162 µM.
The matching figures for `COC(=O)c1ccc(-c2ccc(Oc3cc4c(cc3OCC3CCCCO3)CCN[C@]4(C)CC(=O)Nc3cccc(OC)c3)cc2F)cc1` (stereo partly drawn) [Example 89, methyl 2′-fluoro-4′-(((1R)-1-(2-((3-methoxyphenyl)amino)-2-oxoethyl)-1-methyl-6-((tetrahydro-2H-pyran-2-yl)methoxy)-1,2,3,4-tetrahydroisoquinolin-7-yl)oxy)-[1,1′-biphenyl]-4-carboxylate]: 5.98 °C and 0.00276 µM.
`COc1cc2c(cc1Oc1ccc(-c3c[nH]c4c(C(=O)O)cccc34)c(F)c1)[C@@](C)(CC(=O)Nc1nccs1)NCC2` [Example 21, (R)-3-(2-fluoro-4-((6-methoxy-1-methyl-1-(2-oxo-2-(thiazol-2-ylamino)ethyl)-1,2,3,4-tetrahydroisoquinolin-7-yl)oxy)phenyl)-1H-indole-7-carboxylic acid]: the ΔTm at 300 µM at PCSK9 [1] was 6.58 °C. Besides, at PCSK9 [2], the IC50 is 0.2 µM.
The corresponding values for `Cn1nccc1NC(=O)c1ccc(Oc2cc3c(cc2OCC2CCCCO2)CCN[C@]3(C)CC(=O)Nc2nccs2)cc1F` (single isomer, unassigned) [Example 77, 2-fluoro-4-(((R)-1-methyl-1-(2-oxo-2-(thiazol-2-ylamino)ethyl)-6-(((R or S)-tetrahydro-2H-pyran-2-yl)methoxy)-1,2,3,4-tetrahydroisoquinolin-7-yl)oxy)-N-(1-methyl-1H-pyrazol-5-yl)benzamide] are 6.67 °C and 0.591 µM.
The matching figures for `CC1(c2cn(CCOc3cc4c(cc3Oc3ccc(C(=O)O)c(F)c3)[C@@](C)(CC(=O)Nc3nccs3)NCC4)nn2)CCOC1` (stereo partly drawn) [Example 38, 2-fluoro-4-(((1R)-1-methyl-6-(2-(4-(3-methyltetrahydrofuran-3-yl)-1H-1,2,3-triazol-1-yl)ethoxy)-1-(2-oxo-2-(thiazol-2-ylamino)ethyl)-1,2,3,4-tetrahydroisoquinolin-7-yl)oxy)benzoic acid]: 7 °C and 0.267 µM.
On to `COc1cc2c(cc1Oc1ccc(-c3ccc(C(=O)O)cc3)c(F)c1)[C@@](C)(CC(=O)Nc1nccs1)NCC2` [Example 22, (R)-2′-fluoro-4′-((6-methoxy-1-methyl-1-(2-oxo-2-(thiazol-2-ylamino)ethyl)-1,2,3,4-tetrahydroisoquinolin-7-yl)oxy)-[1,1′-biphenyl]-4-carboxylic acid], for which, on PCSK9 [1], the ΔTm at 300 µM stood at 7.52 °C. Further, the IC50 at PCSK9 [2] is 0.211 µM.
The matching figures for `CC(C)(C)c1cc(NC(=O)c2ccc(Oc3cc4c(cc3OCC3CCCCO3)CCN[C@]4(C)CC(=O)Nc3nccs3)cc2F)[nH]n1` (stereo partly drawn) [Example 76, N-(3-(tert-butyl)-1H-pyrazol-5-yl)-2-fluoro-4-(((1R)-1-methyl-1-(2-oxo-2-(thiazol-2-ylamino)ethyl)-6-((tetrahydro-2H-pyran-2-yl)methoxy)-1,2,3,4-tetrahydroisoquinolin-7-yl)oxy)benzamide]: 7.92 °C and 0.535 µM.
Turning to `Cc1noc(COc2cc3c(cc2Oc2ccc(-c4ccc(C(=O)O)cc4)c(F)c2)[C@@](C)(CC(=O)Nc2nccs2)NCC3)n1` [Example 24, (R)-2′-fluoro-4′-((1-methyl-6-((3-methyl-1,2,4-oxadiazol-5-yl)methoxy)-1-(2-oxo-2-(thiazol-2-ylamino)ethyl)-1,2,3,4-tetrahydroisoquinolin-7-yl)oxy)-[1,1′-biphenyl]-4-carboxylic acid], the ΔTm at 300 µM on PCSK9 [1] was determined as 7.2 °C. Further, the IC50 on PCSK9 [2] turned out to be 0.261 µM.
`C[C@]1(CC(=O)Nc2nccs2)NCCc2cc(OCCn3cc(CNS(C)(=O)=O)nn3)c(Oc3ccc(C(=O)O)c(F)c3)cc21` [Example 50, (R)-2-fluoro-4-((1-methyl-6-(2-(4-(methylsulfonamidomethyl)-1H-1,2,3-triazol-1-yl)ethoxy)-1-(2-oxo-2-(thiazol-2-ylamino)ethyl)-1,2,3,4-tetrahydroisoquinolin-7-yl)oxy)benzoic acid]: the ΔTm at 300 µM at PCSK9 [1] turned out to be 6.74 °C. Also, the IC50 on PCSK9 [2] was determined as 0.683 µM.
Regarding `C[C@]1(CC(=O)Nc2nccs2)NCCc2cc(OCC3CCCCO3)c(Oc3ccc(C(=O)Nc4n[nH]c5ncccc45)c(F)c3)cc21` (single isomer, unassigned) [Example 75, 2-fluoro-4-(((R)-1-methyl-1-(2-oxo-2-(thiazol-2-ylamino)ethyl)-6-(((R or S)-tetrahydro-2H-pyran-2-yl)methoxy)-1,2,3,4-tetrahydroisoquinolin-7-yl)oxy)-N-(1H-pyrazolo[3,4-b]pyridin-3-yl)benzamide], the ΔTm at 300 µM at PCSK9 [1] was determined as 6.18 °C. Moreover, on PCSK9 [2], the IC50 was found to be 0.41 µM.

For the origin of these results see patent US11008313B2, “Substituted 1-methyl-1,2,3,4-tetrahydroisoquinoline molecules as PCSK9 allosteric binders” (Merck Sharp & Dohme Corp., priority 2016, dated 2021).
